According to ChEMBL document CHEMBL3526109 (Drug Metab Dispos, 2011):
Values belong to the compound of their own block, whether it stands above or below them.

Columns and labels:
Settings in all cases: in vivo
[1] = Drug level in bile duct-cannulated cynomolgus monkey bile treated with [14C]brivanib alaninate at 10 mg/kg, po administered as single dose via gavage by mass spectrometry; format: ADME, organism-based, Macaca fascicularis
Plasma [2] = assay: Drug level in human plasma assessed as compound formation treated with [14C]brivanib alaninate at 800 mg, po administered as single dose via gavage measured after 8 hrs by mass spectrometry; format: ADME, organism-based
[3] = Drug excretion in cynomolgus monkey urine treated with [14C]brivanib alaninate at 10 mg/kg, po administered as single dose via gavage by HPLC analysis; format: ADME, organism-based, Macaca fascicularis
Plasma [4] = assay: Drug level in Sprague-Dawley rat plasma assessed as compound formation treated with [14C]brivanib alaninate at 100 mg/kg, po administered as single dose via gavage measured after 2 hrs by mass spectrometry; format: ADME, organism-based
Plasma [5] = assay: Drug level in Sprague-Dawley rat plasma assessed as compound formation treated with [14C]brivanib alaninate at 100 mg/kg, po administered as single dose via gavage measured after 1 hr by mass spectrometry; format: ADME, organism-based
Plasma [6] = assay: Drug level in human plasma assessed as compound formation treated with [14C]brivanib alaninate at 800 mg, po administered as single dose via gavage measured after 2 hrs by mass spectrometry; format: ADME, organism-based
[7] = Drug excretion in Sprague-Dawley rat urine treated with [14C]brivanib alaninate at 100 mg/kg, po administered as single dose via gavage by HPLC analysis; format: ADME, organism-based
Plasma [8] = assay: Drug level in human plasma assessed as compound formation treated with [14C]brivanib alaninate at 800 mg, po administered as single dose via gavage measured after 12 hrs by mass spectrometry; format: ADME, organism-based
[9] = Drug excretion in cynomolgus monkey feces treated with [14C]brivanib alaninate at 10 mg/kg, po administered as single dose via gavage by HPLC analysis; format: ADME, organism-based, Macaca fascicularis
Plasma [10] = assay: Drug level in human plasma assessed as compound formation treated with [14C]brivanib alaninate at 800 mg, po administered as single dose via gavage measured after 4 hrs by mass spectrometry; format: ADME, organism-based
[11] = Drug excretion in Sprague-Dawley rat feces treated with [14C]brivanib alaninate at 100 mg/kg, po administered as single dose via gavage by HPLC analysis; format: ADME, organism-based
[12] = Drug excretion in human feces treated with [14C]brivanib alaninate at 800 mg, po administered as single dose […] by HPLC analysis; format: ADME, organism-based
Plasma [13] = assay: Drug level in cynomolgus monkey plasma assessed as compound formation treated with [14C]brivanib alaninate at 10 mg/kg, po administered as single dose via gavage measured after 6 hrs by mass spectrometry; format: ADME, organism-based, Macaca fascicularis
[14] = Drug excretion in human urine treated with [14C]brivanib alaninate at 800 mg, po administered as single dose […] by HPLC analysis; format: ADME, organism-based
Plasma [15] = assay: Drug level in cynomolgus monkey plasma assessed as compound formation treated with [14C]brivanib alaninate at 10 mg/kg, po administered as single dose via gavage measured after 4 hrs by mass spectrometry; format: ADME, organism-based, Macaca fascicularis
Plasma [16] = assay: Drug level in human plasma assessed as compound formation treated with [14C]brivanib alaninate at 800 mg, po administered as single dose via gavage measured after 1 hr by mass spectrometry; format: ADME, organism-based
Plasma [17] = assay: Drug level in cynomolgus monkey plasma assessed as compound formation treated with [14C]brivanib alaninate at 10 mg/kg, po administered as single dose via gavage measured after 1 hr by mass spectrometry; format: ADME, organism-based, Macaca fascicularis
Plasma [18] = assay: Drug level in cynomolgus monkey plasma assessed as compound formation treated with [14C]brivanib alaninate at 10 mg/kg, po administered as single dose via gavage measured after 12 hrs by mass spectrometry; format: ADME, organism-based, Macaca fascicularis
Plasma [19] = assay: Drug level in Sprague-Dawley rat plasma assessed as compound formation treated with [14C]brivanib alaninate at 100 mg/kg, po administered as single dose via gavage measured after 6 hrs by mass spectrometry; format: ADME, organism-based
Plasma [20] = assay: Drug level in cynomolgus monkey plasma assessed as compound formation treated with [14C]brivanib alaninate at 10 mg/kg, po administered as single dose via gavage measured after 2 hrs by mass spectrometry; format: ADME, organism-based, Macaca fascicularis
[21] = Drug level in bile duct-cannulated rat bile treated with [14C]brivanib alaninate at 100 mg/kg, po administered as single dose via gavage by mass spectrometry; format: ADME, organism-based
Cynomolgus monkey [22] = assay: Total drug recovery in cynomolgus monkey at 10 mg/kg, po administered as single dose via gavage measured during 0 to 168 hrs by liquid scintillation counting; format: ADME, organism-based, Macaca fascicularis
[23] = Drug recovery in bile duct-cannulated rat urine at 100 mg/kg, po administered as single dose via gavage measured during 0 to 48 hrs by liquid scintillation counting; format: ADME, organism-based
[24] = Drug recovery in bile duct-cannulated cynomolgus monkey bile at 10 mg/kg, po administered as single dose via gavage measured during 0 to 72 hrs by liquid scintillation counting; format: ADME, organism-based, Macaca fascicularis
Rattus norvegicus [25] = assay: Cmax as total radioactivity in Sprague-Dawley rat plasma treated at 100 mg/kg, po administered as single dose via gavage by liquid scintillation counting; format: ADME, organism-based
[26] = Drug recovery in human urine at 800 mg, po administered as single dose via gavage measured during 0 to 288 hrs by liquid scintillation counting; format: ADME, organism-based
[27] = Drug recovery in cynomolgus monkey feces at 10 mg/kg, po administered as single dose via gavage measured during 0 to 168 hrs by liquid scintillation counting; format: ADME, organism-based, Macaca fascicularis
[28] = Drug recovery in bile duct-cannulated cynomolgus monkey urine at 10 mg/kg, po administered as single dose via gavage measured during 0 to 72 hrs by liquid scintillation counting; format: ADME, organism-based, Macaca fascicularis
[29] = Drug recovery in human feces at 800 mg, po administered as single dose via gavage measured during 0 to 288 hrs by liquid scintillation counting; format: ADME, organism-based
[30] = Drug recovery in bile duct-cannulated rat feces at 100 mg/kg, po administered as single dose via gavage measured during 0 to 48 hrs by liquid scintillation counting; format: ADME, organism-based
Rattus norvegicus [31] = assay: AUC (0 to t) as total radioactivity in Sprague-Dawley rat plasma treated at 100 mg/kg, po administered as single dose via gavage by liquid scintillation counting; format: ADME, organism-based
Homo sapiens [32] = assay: AUC (0 to 12 hrs) as total radioactivity in human plasma at 800 mg, po administered as single oral dose by HPLC analysis; format: ADME, organism-based
Rattus norvegicus [33] = assay: AUC (0 to 6 hrs) as total radioactivity in Sprague-Dawley rat plasma at 100 mg/kg, po administered as single oral dose by HPLC analysis; format: ADME, organism-based
Cynomolgus monkey [34] = assay: Tmax of total radioactivity in cynomolgus monkey plasma treated at 10 mg/kg, po administered as single dose via gavage by liquid scintillation counting; format: ADME, organism-based, Macaca fascicularis
Cynomolgus monkey [35] = assay: Total drug recovery in bile duct-cannulated cynomolgus monkey at 10 mg/kg, po administered as single dose via gavage measured during 0 to 72 hrs by liquid scintillation counting; format: ADME, organism-based, Macaca fascicularis
[36] = Drug recovery in bile duct-cannulated rat bile at 100 mg/kg, po administered as single dose via gavage measured during 0 to 48 hrs by liquid scintillation counting; format: ADME, organism-based
Cynomolgus monkey [37] = assay: AUC (0 to t) as total radioactivity in cynomolgus monkey plasma treated at 10 mg/kg, po administered as single dose via gavage by liquid scintillation counting; format: ADME, organism-based, Macaca fascicularis
Rattus norvegicus [38] = assay: Total drug recovery in Sprague-Dawley rat at 100 mg/kg, po administered as single dose via gavage measured during 0 to 168 hrs by liquid scintillation counting; format: ADME, organism-based
Cynomolgus monkey [39] = assay: Cmax as total radioactivity in cynomolgus monkey plasma treated at 10 mg/kg, po administered as single dose via gavage by liquid scintillation counting; format: ADME, organism-based, Macaca fascicularis
Rattus norvegicus [40] = assay: Tmax of total radioactivity in Sprague-Dawley rat plasma treated at 100 mg/kg, po administered as single dose via gavage by liquid scintillation counting; format: ADME, organism-based
[41] = Drug recovery in Sprague-Dawley rat urine at 100 mg/kg, po administered as single dose via gavage measured during 0 to 168 hrs by liquid scintillation counting; format: ADME, organism-based
[42] = Drug recovery in cynomolgus monkey urine at 10 mg/kg, po administered as single dose via gavage measured during 0 to 168 hrs by liquid scintillation counting; format: ADME, organism-based, Macaca fascicularis
Homo sapiens [43] = assay: Total drug recovery in human at 800 mg, po administered as single dose […] measured during 0 to 288 hrs by liquid scintillation counting; format: ADME, organism-based
Homo sapiens [44] = assay: AUC (0 to t) as total radioactivity in human plasma treated at 800 mg, po administered as single dose […] by mass spectrometry; format: ADME, organism-based
Cynomolgus monkey [45] = assay: AUC (0 to 12 hrs) as total radioactivity in cynomolgus monkey plasma at 10 mg/kg, po administered as single oral dose by HPLC analysis; format: ADME, organism-based, Macaca fascicularis
Homo sapiens [46] = assay: Cmax as total radioactivity in human plasma treated at 800 mg, po administered as single dose […] by mass spectrometry; format: ADME, organism-based
Homo sapiens [47] = assay: Tmax of total radioactivity in human plasma treated at 800 mg, po administered as single dose […] by mass spectrometry; format: ADME, organism-based
Rattus norvegicus [48] = assay: Total drug recovery in bile duct-cannulated rat at 100 mg/kg, po administered as single dose via gavage measured during 0 to 48 hrs by liquid scintillation counting; format: ADME, organism-based
[49] = Drug recovery in bile duct-cannulated cynomolgus monkey feces at 10 mg/kg, po administered as single dose via gavage measured during 0 to 72 hrs by liquid scintillation counting; format: ADME, organism-based, Macaca fascicularis
[50] = Drug recovery in Sprague-Dawley rat feces at 100 mg/kg, po administered as single dose via gavage measured during 0 to 168 hrs by liquid scintillation counting; format: ADME, organism-based

Compound recovery [1]: metabolite_detected
Compound recovery (Plasma [2]): metabolite_detected
Compound recovery [3]: metabolite_not_detected
Compound recovery (Plasma [4]): metabolite_detected
Compound recovery (Plasma [5]): metabolite_detected
Compound recovery (Plasma [6]): metabolite_detected
Compound recovery [7]: metabolite_not_detected
Compound recovery (Plasma [8]): metabolite_detected
Compound recovery [9]: metabolite_not_detected
Compound recovery (Plasma [10]): metabolite_detected
Compound recovery [11]: metabolite_not_detected
Compound recovery [12]: metabolite_not_detected
Compound recovery (Plasma [13]): metabolite_detected
Compound recovery [14]: metabolite_not_detected
Compound recovery (Plasma [15]): metabolite_detected
Compound recovery (Plasma [16]): metabolite_detected
Compound recovery (Plasma [17]): metabolite_detected
Compound recovery (Plasma [18]): metabolite_detected
Compound recovery (Plasma [19]): metabolite_detected
Compound recovery (Plasma [20]): metabolite_detected
Compound recovery [21]: metabolite_detected
Compound: CC(=O)COc1cn2ncnc(Oc3ccc4[nH]c(C)cc4c3F)c2c1C

Radiolabel recovery (Cynomolgus monkey [22]): 89.79%
Radiolabel recovery [23]: 7.33%
Radiolabel recovery [24]: 47.66%
Cmax (Rattus norvegicus [25]): 35200 ng/mL
Radiolabel recovery [26]: 12.18%
Radiolabel recovery [27]: 76.31%
Radiolabel recovery [28]: 3.56%
Radiolabel recovery [29]: 81.54%
Radiolabel recovery [30]: 3.31%
AUCt (Rattus norvegicus [31]): 250 µg·h/mL
AUC (Homo sapiens [32]): 65627.4 ugequiv/l.hr
AUC (Rattus norvegicus [33]): 139766 ugequiv/l.hr
Tmax (Cynomolgus monkey [34]): 2 h
Radiolabel recovery (Cynomolgus monkey [35]): 81.43%
Radiolabel recovery [36]: 78.35%
AUCt (Cynomolgus monkey [37]): 90.3 µg·h/mL
Radiolabel recovery (Rattus norvegicus [38]): 93.68%
Cmax (Cynomolgus monkey [39]): 9700 ng/mL
Tmax (Rattus norvegicus [40]): 2 h
Radiolabel recovery [41]: 9.46%
Radiolabel recovery [42]: 10.3%
Radiolabel recovery (Homo sapiens [43]): 93.72%
AUCt (Homo sapiens [44]): 203.8 µg·h/mL
AUC (Cynomolgus monkey [45]): 69315 ugequiv/l.hr
Cmax (Homo sapiens [46]): 9400 ng/mL
Tmax (Homo sapiens [47]): 1 h
Radiolabel recovery (Rattus norvegicus [48]): 88.99%
Radiolabel recovery [49]: 26.41%
Radiolabel recovery [50]: 83.58%
Compound: Cc1cc2c(F)c(Oc3n[14cH]nn4cc(OC[C@@H](C)OC(=O)[C@H](C)N)c(C)c34)ccc2[nH]1
